Source: patent publication US20070225245A1, “Viral vector driven mutant bacterial cytosine deaminase gene and uses thereof” (priority 1998, published 2007)
Converted amounts (≈) assume the structure as drawn.

How the values were obtained:
[1] = tested on: Intracranial D54MG gliomas; assay: Survival, intracranial glioma, HSV and 5-FC; assay type: in vivo, athymic nude mice; conditions: saline and 5-FC
Procedure: Two days later, mice were begun on twice daily intraperitoneal injections of saline (1 ml) or 5-FC (500 mg/kg). Mice were followed for survival.
Studies were undertaken to determine the efficacy of the HSV construct, M012, in in vivo murine glioma models. […] The median survival of animals receiving saline plus 5-FC was 34 days. In a similar study with the D54MG intracranial model, median survival of mice injected intratumorally with M012 and administered 5-FC was 40 days, compared to 27 days with M012 plus saline and 19 days with saline and 5-FC (FIG. 14).

[2] = tested on: MIA PaCa-2 xenografts; assay: Subcutaneous human pancreatic tumor xenograft, tumor growth; assay type: in vivo, athymic nude mice
Procedure: Treatment was started at the time of established tumor growth (Day 0 equal to 17 days after tumor cell injection). Animals were injected i.t. with PBS or 5×10^7 TCID50 of AdbCD-D314A on Days 0, 7, and 14, and then irradiated with 2 Gy on Days 1, 8 and 15 using a ^60Co gamma irradiator, and 400 mg/kg of 5-FC was i.p. administered at qd×5/week for 3 weeks starting on Day 1. Data points represent the mean change in tumor surface area relative to Day 0 for each group of animals.
To evaluate in vivo therapeutic efficacy of the combination of AdbCD-D314A/5-FC and radiation treatment, 16×10^6 MIA PaCa-2 tumor cells were resuspended 1:1 (v/v) in Matrigel (Becton Dickinson) and injected s.c. into female athymic nude mice. Treatment was started 17 days post-tumor cell injection at the time of established tumor growth, noted as Day 0. Animals were randomly divided into groups receiving different treatments: 1) AdbCD-D314A plus 5-FC; 2) AdbCD-D314A plus 5-FC in combination with radiation; 3) PBS plus 5-FC in combination with radiation; 4) PBS plus 5-FC. Two groups of mice (# 1 and 2) were injected i.t. with 5×10^7 TCID50 AdbCD-D314A on Days 0, 7, and 14. […] Tumor size was monitored twice a week using digital Vernier calipers. Tumor surface areas were calculated as width×length (mm^2).

[3] = tested on: ASPC-1; assay: 5-FU cytotoxicity IC50; assay type: cell-based; conditions: Homo sapiens, ASPC1
Procedure: (§1) A two factor analysis of variance with interaction was used to assess the effects of AdCMVLuc and AdCMVLuc+Fab-FGF2 MOI on RLU for each of the cell types individually. Due to the nonconstant variability, the logarithm of RLU was analyzed. This transformation stabilized the variability and normalized the errors. A three-factor with interaction analysis of variance was used to assess the effects of MOI, virus type and day on the number of cells per well. Due to the nonconstant variability, the logarithm of cells per well was analyzed. This transformation stabilized the variability and normalized the errors. Global comparisons were done at the 5% significance level and all pairwise comparisons were done at the 1% significance level. A nonlinear model was used to calculate the 5-FU IC50 for each cell type individually. The nonlinear model is given by: number of cells=trough+(peak-trough)/(1+dose/IC50). To assess the correlation of the number of cells per well with 5-FU production, a simple linear regression was done modeling the logarithm of cells per well as a function of percent 5-FU production for each cell and virus type combination individually. Kaplan-Meier estimates on the difference in time to tumor size doubling was used to assess the difference in tumor growth in animals treated with AdCMVCD or AdCMVCD+Fab′-FGF2 plus 5-FC and radiation.
(§2) To determine the relative sensitivity of several hepatobiliary cell lines to 5-FU, the concentration of 5-FU which inhibited cellular growth by 50% (IC50) was determined. Characterization of this information is particularly relevant to the CD/5-FC toxin gene prodrug system, as 5-FU is the toxic metabolic product of cytosine deaminase enzymatic conversion of 5-FC.

[4] = tested on: BXPC-3; assay: 5-FU cytotoxicity IC50; assay type: cell-based; conditions: Homo sapiens
Procedure: as §1, §2

[5] = tested on: CFPAC-1; assay: 5-FU cytotoxicity IC50; assay type: cell-based; conditions: Homo sapiens
Procedure: as §1, §2

[6] = tested on: SK-ChA-1; assay: 5-FU cytotoxicity IC50; assay type: cell-based; conditions: Homo sapiens
Procedure: as §1, §2

[7] = tested on: LS174T; assay: 5-FU toxicity, MTS assay; assay type: cell-based; conditions: Homo sapiens, 120 h, 5 days
Procedure: (§3) Tumor cells (5×10^4) were plated in 96 well plates and allowed to adhere overnight. Cells were then incubated continuously in the presence of increasing concentrations of 5-FU (0-200 μg/ml) and assayed for toxicity using an MTS assay (Promega, Madison Wis.) after 5-days. ICx values were calculated as previously described. U251MG glioma cells were as sensitive to 5-FU as LS174T and WiDR colon carcinoma cells, while D54MG, U87MG and U118MG glioma cells and AsPC-1 pancreatic carcinoma cells were 3-fold less sensitive (Table 2).

[8] = tested on: WiDr; assay: 5-FU toxicity, MTS assay; assay type: cell-based; conditions: Homo sapiens, 120 h, 5 days
Procedure: as §3

[9] = tested on: D54MG; assay: 5-FC or 5-FU toxicity (MTS) in Ad-infected cells; assay type: cell-based; conditions: Homo sapiens, Table 14, MOI 0
Procedure: (§4) Next, cytosine deaminase was administered to glioma cells via the replication deficient adenovirus. Glioma cells plated in T25 flasks were infected with AdCMVCD at several multiplicities of infection (MOI 0-300 pfu/cell) for 1 h at 37° C. At twenty-four hours post-infection, cells were harvested, replated at 5×10^3 cells/well in 96 well plates, and allowed to adhere overnight. […]
(§5) To test this hypothesis, 5-FC toxicity (IC50) was compared in cells infected with AdCMVCD versus AdCDUPRT. […] In Table 13 mean 5-FC IC50 was obtained from 2-5 separate experiments. Cells were infected with AdCMVCD or AdCDUPRT at the indicated MOI (pfu/cell) for 1 h at 37° C. 5-FC toxicity was determined by MTS assay 5 days after drug addition.

[10] = tested on: U251MG; assay: 5-FC or 5-FU toxicity (MTS) in Ad-infected cells; assay type: cell-based; conditions: Homo sapiens, U-251, Table 14, MOI 0
Procedure: as §4, §5

[11] = tested on: U87MG; assay: 5-FC or 5-FU toxicity (MTS) in Ad-infected cells; assay type: cell-based; conditions: Homo sapiens, U-87 MG, Table 14, MOI 0
Procedure: as §4, §5

Row | Structure (SMILES) | median survival [1] [days] | mean time to tumor doubling ([2]; PBS plus 5-FC) [days] | mean time to tumor doubling ([2]; PBS plus 5-FC in combination with radiation) [days] | IC50 [3] [µg/mL] | IC50 [4] [µg/mL] | IC50 [5] [µg/mL] | IC50 [6] [µg/mL] | IC20 [7] [µg/mL] | IC50 [7] [µg/mL] | IC80 [7] [µg/mL] | IC20 [8] [µg/mL] | IC50 [8] [µg/mL] | IC80 [8] [µg/mL] | IC50 [9] [µg/mL] | IC50 [10] [µg/mL] | IC50 [11] [µg/mL]
1 | Nc1nc(=O)[nH]cc1F [5-FC, 5-fluorocytosine] | 19 | 14 | 30 |  |  |  |  |  |  |  |  |  |  |  |  | 
2 | O=c1[nH]cc(F)c(=O)[nH]1 [5-FU, 5-fluorouracil] |  |  |  | 0.635 | 0.134 | 0.089 | 0.115 | 0.11 (≈ 0.846 µM) | 0.3 (≈ 2.31 µM) | 2.33 (≈ 17.9 µM) | 0.03 (≈ 0.231 µM) | 0.13 (≈ 0.999 µM) | 1.7 (≈ 13.1 µM) | 1.3 (≈ 9.99 µM) | 0.4 (≈ 3.08 µM) | 1.8 (≈ 13.8 µM)
